Literature values as cited in patent US20170360829A1, “TREATMENT OF VASCULAR ANOMALIES” (GILLIES MCINDOE RESEARCH INSTITUTE, priority 2016, published 2017).

Assays:
[1] = test system: venous malformation (VM); settings: treatment of VM; review by van der Vleuten et al. (ref. 14)
[2] = test system: several tumoral cell lines

| Molecule | effective in % of cases [1] | IC50 relative to cisplatin [2] |
| --- | --- | --- |
| CCO [ethanol] | 74% | – |
| CCCCCCCCCCCCCCOS(=O)(=O)[O-].[Na+] [sodium tetradecyl sulfate] | 86% | – |
| [Pt(dmba)(aza-N1)(dmso)] complex 1 | – | lower IC50 than cisplatin |
| bleomycin | 88% | – |
| polidocanol | 82% | – |
